According to US6511993B1, “Metalloprotease inhibitors” (priority 1999, dated 2003):
Counter-ions that a name gives are not always drawn.

Legend:
[1] = tested on: human ovarian carcinoma xenografts; details: mice carrying human ovarian carcinoma xenografts; Cancer Res., 1993, 53, 2087; cited from earlier work
MMP-9 = MMP-9 (Homo sapiens, UniProt P14780); assay: Inhibition of MMP-9, fluorogenic peptide cleavage; format: biochemical; details: catalytic domain MMP-9, 1 nM enzyme, 5 μM substrate
Description: (§1) The biological activities of the compounds of the present invention were determined by the following test methods, which are based on the ability of the compounds to inhibit the cleavage of various fluorogenic peptides by MMPs 1, 2, 3, 9, 13 and 14.
(§2) The assays for MMPs 2, 3, 9 and 14 are based upon the original protocol described in Fed. Euro. Biochem. Soc., 1992, 296, 263, with the minor modifications described below.
(§3) Inhibition of MMP-2, MMP-3 and MMP-9
(§4) Catalytic domains MMP-2, MMP-3 and MMP-9 were prepared in Pfizer Central Research laboratories in a standard manner from sources known to the skilled person, including some of the references mentioned herein. A stock solution of MMP-2, MMP-3 or MMP-9 (1 μM) was activated by the addition of APMA. For MMP-2 and MMP-9, a final concentration of 1 mM APMA was added, followed by incubation for 1 hour at 37° C. MMP-3 was activated by the addition of 2 mM APMA, followed by incubation for 3 hours at 37° C. The enzymes were then diluted in Tris-HCl assay buffer (100 mM Tris, 100 mM NaCl, 10 mM CaCl2 and 0.16% Brij 35, pH 7.5) to a concentration of 10 nM. The final concentration of enzyme used in the assays was 1 nM.
(§5) The fluorogenic substrate used in this screen was Mca-Arg-Pro-Lys-Pro-Tyr-Ala-Nva-Trp-Met-Lys(Dnp)-NH2 (Bachem Ltd., Essex, UK) as originally described in J. Biol. Chem., 1994, 269, 20952. This substrate was selected because it has a balanced hydrolysis rate against MMPs 2, 3 and 9 (kcat/km of 54,000, 59,400 and 55,300 s^−1 M^−1 respectively). The final substrate concentration used in the assay was 5 μM.
(§6) Determination of Enzyme Inhibition
(§7) The test compound was dissolved in dimethyl sulphoxide and diluted with assay buffer so that no more than 1% dimethyl sulphoxide was present. Test compound and enzyme were added to each well of a 96 well plate and allowed to equilibrate for 15 minutes at 37° C. in an orbital shaker prior to the addition of substrate. Plates were then incubated for 1 hour at 37° C., prior to determination of fluorescence using a fluorimeter (Fluostar; BMG LabTechnologies, Aylesbury, UK) at an excitation wavelength of 328 nm and emission wavelength of 393 nm. The potency of inhibition was measured from the amount of substrate cleavage obtained using a range of test compound concentrations and, from the resulting dose-response curve, an IC50 value (the concentration of inhibitor required to inhibit 50% of the enzyme activity) was calculated.

MMP-2 = MMP-2 (Homo sapiens, UniProt P08253); assay: Inhibition of MMP-2, fluorogenic peptide cleavage; format: biochemical; details: catalytic domain MMP-2, 1 nM enzyme, 5 μM substrate
Chain of MMP-2 (P08253 whole entry, the tested form may be a part): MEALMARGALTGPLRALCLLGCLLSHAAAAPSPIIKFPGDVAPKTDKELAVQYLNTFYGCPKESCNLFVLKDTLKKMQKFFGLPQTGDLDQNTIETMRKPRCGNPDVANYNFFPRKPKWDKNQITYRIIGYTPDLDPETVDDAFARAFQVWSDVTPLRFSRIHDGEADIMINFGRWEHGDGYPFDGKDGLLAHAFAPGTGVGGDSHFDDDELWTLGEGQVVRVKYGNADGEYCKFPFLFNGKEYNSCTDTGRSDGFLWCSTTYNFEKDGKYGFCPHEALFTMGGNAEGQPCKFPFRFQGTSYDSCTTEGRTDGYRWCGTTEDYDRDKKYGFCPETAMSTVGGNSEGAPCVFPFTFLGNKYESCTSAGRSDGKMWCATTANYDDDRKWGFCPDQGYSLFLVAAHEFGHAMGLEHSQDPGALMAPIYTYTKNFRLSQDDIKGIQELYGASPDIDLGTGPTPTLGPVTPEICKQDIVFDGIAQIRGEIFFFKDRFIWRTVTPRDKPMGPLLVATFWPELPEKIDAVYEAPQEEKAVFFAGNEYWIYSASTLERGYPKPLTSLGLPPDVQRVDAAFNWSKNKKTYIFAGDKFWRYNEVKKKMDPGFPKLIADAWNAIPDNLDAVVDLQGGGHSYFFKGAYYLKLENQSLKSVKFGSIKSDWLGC
Description: as §1, §2, §3, §4, §5, §6, §7

MMP-1 = biological target: T1, MMP-1 (Homo sapiens, UniProt P03956); assay: Inhibition of MMP-1, fluorogenic peptide cleavage; format: biochemical; details: catalytic domain MMP-1, 1 nM enzyme, 10 μM substrate
T1 construct: Catalytic domain MMP-1 was prepared; made in house
T1 sequence (P03956 100-269 limits assumed): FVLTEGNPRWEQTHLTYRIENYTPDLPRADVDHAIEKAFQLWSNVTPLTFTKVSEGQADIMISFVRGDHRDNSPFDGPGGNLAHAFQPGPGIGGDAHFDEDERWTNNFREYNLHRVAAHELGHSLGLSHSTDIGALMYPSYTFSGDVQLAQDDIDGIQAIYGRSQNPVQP
Description: as §1
Catalytic domain MMP-1 was prepared in Pfizer Central Research laboratories in a standard manner from sources known to the skilled person, including some of the references mentioned herein. A stock solution of MMP-1 (1 μM) was activiated by the addition of aminophenylmercuric acetate (APMA), at a final concentration of 1 mM, for 20 minutes at 37° C. MMP-1 was then diluted in Tris-HCl assay buffer (50 mM Tris, 200 mM NaCl, 5 mM CaCl2, 20 μM ZnSO4 and 0.05% Brij 35, pH 7.5) to a concentration of 10 nM. The final concentration of enzyme used in the assay was 1 nM.
The fluorogenic substrate used in this assay was Dnp-Pro-β-cyclohexyl-Ala-Gly-Cys(Me)-His-Ala-Lys-(N-Me-Ala)-NH2 as originally described in Anal. Biochem., 1993, 212, 58. The final substrate concentration used in the assay was 10 μM.
as §6
as §7, with “C.” for “C.,”, “fluorescence (substrate cleavage)” for “fluorescence”, “355” for “328”, “440” for “393”, “IC50,” for “IC50”

MMP-3 = biological target: T2, MMP-3 (Homo sapiens, UniProt P08254); assay: Inhibition of MMP-3, fluorogenic peptide cleavage; format: biochemical; details: catalytic domain MMP-3, 1 nM enzyme, 5 μM substrate
T2 construct: Catalytic domains MMP-2, MMP-3 and MMP-9 were prepared; made in house
T2 sequence (P08254 100-272 limits assumed): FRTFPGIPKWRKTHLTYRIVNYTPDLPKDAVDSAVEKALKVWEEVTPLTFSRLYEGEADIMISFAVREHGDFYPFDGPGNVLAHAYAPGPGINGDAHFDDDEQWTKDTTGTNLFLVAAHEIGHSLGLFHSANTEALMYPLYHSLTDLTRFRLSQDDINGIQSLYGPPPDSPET
Description: as §1, §2, §3, §4, §5, §6, §7

MMP-14 = biological target: T3, MMP-14 (Homo sapiens, UniProt P50281); assay: Inhibition of MMP-14, fluorogenic peptide cleavage; format: biochemical; details: catalytic domain MMP-14, 1 nM enzyme
T3 construct: Catalytic domain MMP-14 was prepared; made in house
Description: as §1, §2
Catalytic domain MMP-14 was prepared in Pfizer Central Research laboratories in a standard manner from sources known to the skilled person, including some of the references mentioned herein. A 10 μM enzyme stock solution was activated for 20 minutes at 25° C. following the addition of 5 μg/ml of trypsin (Sigma, Dorset, UK). The trypsin activity was then neutralised by the addition of 50 μg/ml of soyabean trypsin inhibitor (Sigma, Dorset, UK), prior to dilution of this enzyme stock solution in Tris-HCl assay buffer (100 mM Tris, 100 mM NaCl, 10 mM CaCl2, 0.16% Brij 35, pH 7.5) to a concentration of 10 nM. The final concentration of enzyme used in the assay was 1 nM.
The fluorogenic substrate used in this screen was Mca-Pro-Leu-Gly-Leu-Dpa-Ala-Arg-NH2 (Bachem Ltd., Essex, UK) as described in J. Biol. Chem., 1996, 271, 17119.
Determination of enzyme inhibition
This was performed in the same manner as described for MMPs 2, 3 and 9.

Chain of MMP-9 (P14780 whole entry, the tested form may be a part): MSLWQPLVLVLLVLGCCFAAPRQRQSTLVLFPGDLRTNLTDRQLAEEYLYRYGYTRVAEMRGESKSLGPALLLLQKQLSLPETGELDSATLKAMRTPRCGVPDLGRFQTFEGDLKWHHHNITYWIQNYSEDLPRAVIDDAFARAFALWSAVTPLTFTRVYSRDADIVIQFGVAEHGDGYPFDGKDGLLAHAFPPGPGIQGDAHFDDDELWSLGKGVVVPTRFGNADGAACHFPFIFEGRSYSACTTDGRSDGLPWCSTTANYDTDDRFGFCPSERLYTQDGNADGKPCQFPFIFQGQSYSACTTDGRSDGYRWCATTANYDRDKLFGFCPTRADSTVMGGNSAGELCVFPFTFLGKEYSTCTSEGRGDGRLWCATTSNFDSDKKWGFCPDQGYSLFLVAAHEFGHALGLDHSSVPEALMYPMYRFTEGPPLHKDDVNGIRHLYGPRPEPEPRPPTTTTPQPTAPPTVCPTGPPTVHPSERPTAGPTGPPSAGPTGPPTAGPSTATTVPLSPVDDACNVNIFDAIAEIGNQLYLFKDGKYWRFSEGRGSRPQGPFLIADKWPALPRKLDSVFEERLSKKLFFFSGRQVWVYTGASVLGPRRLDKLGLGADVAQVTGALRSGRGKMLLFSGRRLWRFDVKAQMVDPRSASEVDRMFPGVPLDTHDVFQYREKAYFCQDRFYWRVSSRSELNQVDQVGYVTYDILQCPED

| SMILES | IC50 (MMP-9) [nM] | IC50 (MMP-2) [nM] | IC50 (MMP-1) [nM] | IC50 (MMP-3) [nM] | IC50 (MMP-14) [nM] | melting point [°C] | survival [1] | tumour burden [1] |
| --- | --- | --- | --- | --- | --- | --- | --- | --- |
| CNC(=O)[C@H](Cc1ccccc1)NC(=O)[C@H](CC(C)C)[C@H](CSc1cccs1)C(=O)NO [BB-94] | – | – | – | – | – | – | prolong the survival | decrease the tumour burden |
| Cc1cc(C2CCN(S(=O)(=O)C3(C(=O)NO)CCNCC3)CC2)ccc1-c1cccc(OCCO)n1 [Example 6, N-Hydroxy 4-{[4-(4-{6-[2-hydroxyethoxy]pyridin-2-yl}-3-methylphenyl)piperidin-1-yl]sulphonyl}-piperidine-4-carboxamide dihydrochloride] | > 70 | > 100 | > 1000 | < 10 | > 2000 | – | – | – |
| Cc1cc(C2CCN(S(=O)(=O)C3(C(=O)NO)CCN(C)CC3)CC2)ccc1-c1cccc(OCCO)n1 [Example 7, N-Hydroxy 4-{[4-(4-{6-[2-hydroxyethoxy]pyridin-2-yl}-3-methylphenyl)piperidin-1-yl]sulphonyl}-1-methyl-piperidine-4-carboxamide] | > 70 | > 100 | > 1000 | < 10 | > 2000 | – | – | – |
| Cc1cc(C2CCN(S(=O)(=O)C3(C(=O)NO)CCOCC3)CC2)ccc1-c1cccc(OC[C@@H](O)CO)c1 [Example 10, N-Hydroxy 4-{4-[4-(3-{(2S)-2-hydroxy-2-hydroxymethyl}ethoxyphenyl)-3-methylphenyl]-piperidin-1-ylsulphonyl}-tetrahydro-2H-pyran-4-carboxamide] | > 70 | > 100 | > 1000 | < 10 | > 2000 | – | – | – |
| Cc1cc(C2CCN(S(=O)(=O)C3(C(=O)NO)CCOCC3)CC2)ccc1-c1cccc(OCCN)c1.Cl [Example 14, N-Hydroxy 4-{[4-(-4-{3-[2-aminoethoxy]phenyl}-3-methylphenyl)piperidin-1-yl]sulphonyl}tetrahydro-2H-pyran-4-carboxamide hydrochloride] | > 70 | > 100 | > 1000 | < 10 | > 2000 | 208 to 210 | – | – |

Second part, led by results:

| IC50 (MMP-9) [nM] | IC50 (MMP-2) [nM] | IC50 (MMP-1) [nM] | IC50 (MMP-3) [nM] | IC50 (MMP-14) [nM] | melting point [°C] | SMILES | survival [1] | tumour burden [1] |
| --- | --- | --- | --- | --- | --- | --- | --- | --- |
| > 70 | > 100 | > 1000 | < 10 | > 2000 | – | Cc1cc(C2CCN(S(=O)(=O)C3(C(=O)NO)CCOCC3)CC2)ccc1-c1cccc(OCCO)n1 [Example 3, N-Hydroxy 4-{[4-(4-{6-[2-hydroxyethoxy]pyridin-2-yl}-3-methylphenyl)piperidin-1-yl]sulphonyl}tetrahydro-2H-pyran-4-carboxamide] | – | – |
| > 70 | > 100 | > 1000 | < 10 | > 2000 | – | Cc1cc(C2CCN(S(=O)(=O)C3(C(=O)NO)CCOCC3)CC2)ccc1-c1cccc(OC[C@@H](O)CO)n1 [Example 4, N-Hydroxy 4-{[4-(4-{6-[(2S)-2,3-dihydroxy-1-propoxy]pyridin-2-yl}-3-methylphenyl)piperidin-1-yl]sulphonyl}tetrahydro-2H-pyran-4-carboxamide] | – | – |
| > 70 | > 100 | > 1000 | < 10 | > 2000 | 125 to 130 | Cc1cc(C2CCN(S(=O)(=O)C3(C(=O)NO)CCOCC3)CC2)ccc1-c1cccc(OC[C@H](O)CO)n1 [Example 5, N-Hydroxy 4-{[4-(4-{6-[(2R)-2,3-dihydroxy-1-propoxy]pyridin-2-yl}-3-methylphenyl)piperidin-1-yl]sulphonyl}tetrahydro-2H-pyran-4-carboxamide] | – | – |
